Measured values from patent US20140357487A1, “PLANTS HAVING INCREASED TOLERANCE TO HERBICIDES” (BASF SE, priority 2011, published 2014).

Legend:
[1] = molecular target: T1, Hordeum HPPD variant L353M, P321R, L320N (Hordeum vulgare, UniProt O48604, L320N/L353M/P321R); assay: HPPD activity assay, Hordeum HPPD mutant L353M, P321R, L320N; type: biochemical; details: normalized on Hordeum wild-type HPPD
T1 construct: His (N); made in house; host or cells: E. coli BL21 (DE3)
Procedure: (§1) HPPD produces homogentisic acid and CO2 from 4-hydroxyphenylpyruvate (4-HPP) and O2. The activity assay for HPPD is based on the analysis of homogentisic acid by reversed phase HPLC.
(§2) The assay mixture can contain 150 mM potassium phosphate buffer pH 7.0, 50 mM L-ascorbic acid, 1 μM FeSO4 and 7 μg of purified enzyme in a total volume of 1 ml.
(§3) Inhibitors are dissolved in DMSO (dimethylsulfoxide) to a concentration of 20 mM or 0.5 mM, respectively. From this stock solution serial five-fold dilutions are prepared in DMSO, which are used in the assay. The respective inhibitor solution accounts for 1% of the assay volume. […] After a preincubation of 30 min the reaction is started by adding 4-HPP to a final concentration of 0.1 mM. The reaction is allowed to proceed for 120 min at room temperature. The reaction is stopped by addition of 100 μl of 4.5 M phosphoric acid.
(§4) Activities are normalized by setting the uninhibited enzyme activity to 100%. IC50 values are calculated using non-linear regression.
(§5) The assay mixture can contain 150 mM potassium phosphate buffer pH 7.0, 50 mM L-ascorbic acid, 100 μM Catalase (Sigma-Aldrich), 1 μM FeSO4 and 0.2 units of purified HPPD enzyme in a total volume of 505 μl. 1 unit is defined as the amount of enzyme that is required to produce 1 nmol of HGA per minute at 20° C.
(§6) Inhibitors are dissolved in DMSO (dimethylsulfoxide) to a concentration of 0.5 mM. From this stock solution serial five-fold dilutions are prepared in DMSO, which are used in the assay. The respective inhibitor solution accounts for 1% of the assay volume. […] Activities are normalized by setting the uninhibited enzyme activity to 100%. IC50 values are calculated using non-linear regression.
(§7) Purified, mutant HPPD enzymes are obtained by the methods described above. Dose response and kinetic measurements are carried out using the described HPPD activity assay. Apparent michaelis constants (Km) and maximal reaction velocities (Vmax) are calculated by non-linear regression with the software GraphPad Prism 5 (GraphPad Software, La Jolla, USA) using a substrate inhibition model.
(§8) Field performance of the optimized HPPD enzyme, which is used as a herbicide tolerance trait may depend not only on its lack of sensitivity towards HPPD inhibiting herbicides but also on its activity. To assess the potential performance of a herbicide tolerance trait a tolerance index (TI) is calculated using the following formula: […]
(§9) Easy comparison and ranking of each trait is enabled by normalizing tolerance indexes on Arabidopsis or Hordeum wild-type HPPD.

[2] = molecular target: T2, Hordeum HPPD variant L353M, P321R, V212I, L334E (Hordeum vulgare, UniProt O48604, L334E/L353M/P321R/V212I); assay: HPPD activity assay, Hordeum HPPD mutant L353M, P321R, V212I, L334E; type: biochemical; details: normalized on Hordeum wild-type HPPD
T2 construct: His (N); made in house; host or cells: E. coli BL21 (DE3)
T2 sequence (O48604 whole entry R146V/R147D/R148G/A164G/V212I/P321R/L334E/L353M): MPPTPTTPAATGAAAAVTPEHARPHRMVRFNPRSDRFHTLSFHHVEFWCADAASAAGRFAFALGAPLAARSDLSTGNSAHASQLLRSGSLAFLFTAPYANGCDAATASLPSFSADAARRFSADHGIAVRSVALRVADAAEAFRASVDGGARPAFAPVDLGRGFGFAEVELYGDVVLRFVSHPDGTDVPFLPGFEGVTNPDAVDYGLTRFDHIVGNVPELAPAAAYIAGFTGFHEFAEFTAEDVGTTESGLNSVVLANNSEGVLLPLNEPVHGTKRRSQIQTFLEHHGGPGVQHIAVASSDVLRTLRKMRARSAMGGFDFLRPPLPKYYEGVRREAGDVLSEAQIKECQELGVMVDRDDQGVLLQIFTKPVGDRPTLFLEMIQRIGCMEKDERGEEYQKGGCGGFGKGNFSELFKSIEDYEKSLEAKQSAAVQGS
Procedure: as §1, §2, §3, §4, §5, §6, §7, §8, §9

[3] = molecular target: T3, Arabidopsis HPPD (SEQ ID: 53) (Arabidopsis thaliana, UniProt P93836); assay: HPPD activity assay, Arabidopsis wild-type HPPD; type: biochemical; design: key to Normalized tolerance index TI: tolerance index relative to Arabidopsis wild-type HPPD (= 1); details: for Normalized tolerance index TI: normalized on Arabidopsis wild-type HPPD; for tolerance index TI: not normalized
T3 construct: His6 (N); made in house; host or cells: E. coli BL21 (DE3)
T3 sequence (P93836 1-445): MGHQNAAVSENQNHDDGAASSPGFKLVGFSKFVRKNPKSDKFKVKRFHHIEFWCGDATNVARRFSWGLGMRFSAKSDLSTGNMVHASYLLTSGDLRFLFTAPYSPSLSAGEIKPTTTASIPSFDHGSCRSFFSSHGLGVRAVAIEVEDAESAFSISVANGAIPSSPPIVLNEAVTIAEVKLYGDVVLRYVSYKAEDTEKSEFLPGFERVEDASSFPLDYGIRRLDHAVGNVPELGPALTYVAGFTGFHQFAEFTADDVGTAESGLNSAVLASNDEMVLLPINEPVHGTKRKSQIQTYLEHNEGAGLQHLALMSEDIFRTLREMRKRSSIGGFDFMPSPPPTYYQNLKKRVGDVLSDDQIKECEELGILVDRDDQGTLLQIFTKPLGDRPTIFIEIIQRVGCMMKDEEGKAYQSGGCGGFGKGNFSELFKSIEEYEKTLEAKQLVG
Procedure: as §1, §2, §3, §4, §5, §6
(§10) Using methods which are described in the above examples or well known in the art, purified, recombinant wildtype HPPD enzymes are characterized with respect to their kinetic properties and sensitivity towards HPPD inhibiting herbicides. Apparent michaelis constants (Km) and maximal reaction velocities (Vmax) are calculated by non-linear regression with the software GraphPad Prism 5 (GraphPad Software, La Jolla, USA) using a substrate inhibition model.
as §8, with “of the HPPD enzyme,” for “of the optimized HPPD enzyme,”, “herbicide tolerance trait, may depend” for “herbicide tolerance trait may depend”
Easy comparison and ranking of each trait is enabled by normalizing tolerance indexes on Arabidopsis wild-type HPPD.

Avena HPPD = assay: HPPD activity assay, Avena HPPD; type: biochemical, Avena sativa; details: normalized on Arabidopsis wild-type HPPD
Procedure: as §1, §2
Inhibitors are dissolved in DMSO (dimethylsulfoxide) to a concentration of 20 mM or 0.5 mM, respectively. From this stock solution serial five-fold dilutions are prepared in DMSO, which are used in the assay. The respective inhibitor solution accounts for 1% of the assay volume. Thus, final inhibitor concentrations range from 200 μM to 2.5 nM or from 5 μM to 63 pM, respectively. After a preincubation of 30 min the reaction is started by adding 4-HPP to a final concentration of 0.1 mM. The reaction is allowed to proceed for 120 min at room temperature. The reaction is stopped by addition of 100 μl of 4.5 M phosphoric acid.
as §4, §5
Inhibitors are dissolved in DMSO (dimethylsulfoxide) to a concentration of 0.5 mM. From this stock solution serial five-fold dilutions are prepared in DMSO, which are used in the assay. The respective inhibitor solution accounts for 1% of the assay volume. Thus, final inhibitor concentrations range from 5 μM to 320 pM, respectively. Activities are normalized by setting the uninhibited enzyme activity to 100%. IC50 values are calculated using non-linear regression.
as §10, with “model. […] Weighted means (by standard error) of Km and […] values are calculated from at least three independent experiments. […]” for “model.”
as §8, with “of the HPPD enzyme,” for “of the optimized HPPD enzyme,”, “herbicide tolerance trait, may depend” for “herbicide tolerance trait may depend”

[4] = Arabidopsis HPPD Wildtype, Table 15

T1 sequence (O48604 whole entry R146V/R147D/R148G/A164G/L320N/P321R/L353M): as the sequence (O48604 whole entry R146V/R147D/R148G/A164G/V212I/P321R/L334E/L353M) above, with I212V, L320N, E334L counted along it

SMILES	Normalized tolerance index TI [1]	Normalized tolerance index TI [2]	Ki [3] [nM]	Normalized tolerance index TI [3, 4]	Normalized tolerance index TI ([3]; Arabidopsis HPPD, Table 12)	tolerance index TI ([3]; Arabidopsis HPPD)	Normalized tolerance index TI (Avena HPPD)
CC1=NOC(c2c(Cl)ccc(C3=C(O)c4ncccc4C(C)(C)S3(=O)=O)c2Cl)C1 (stereo not shown) [Inhibitor 1, 7-[2,4-dichloro-3-(3-methyl-4,5-dihydroisoxazol-5-yl)phenyl]-5,5-dimethyl-6,6-dioxo-thiopyrano[4,3-b]pyridin-8-ol]	2.1	2.2	4.1	1	1	4E−3	4.7
CC1(C)c2cccnc2C(O)=C(c2ccc(Cl)nc2Cl)S1(=O)=O [Inhibitor 2, 7-(2,6-dichloro-3-pyridyl)-5,5-dimethyl-6,6-dioxo-thiopyrano[4,3-b]pyridin-8-ol]	1.4	1.9	4.2	1	1	4E−3	2.8
COCCOCc1c(Cl)ccc(C2=C(O)c3ncccc3C(C)(C)S2(=O)=O)c1Cl [Inhibitor 3, 7-[2,4-dichloro-3-(2-methoxyethoxymethyl)phenyl]-5,5-dimethyl-6,6-dioxo-thiopyrano[4,3-b]pyridin-8-ol]	1.9	2.1	–	1	1	–	0.1
